Four sequences from patent US8012944B2, “Method for treating cancer using IAP antisense oligomer and chemotherapeutic agent” (Pharmascience Inc., priority 2003, dated 2011) can be followed below.

Format in all cases: cell-based, human
One series relates to XIAP RNA. In words: XIAP RNA knock-down in T24 cells (TaqMan quantitative PCR). The text has this: (§1) We used TaqMan quantitative PCR (described below) to assay for changes in mRNA levels after oligonucleotide treatment. We employed ELISA for determining XIAP protein levels and western blotting for determining HIAP1 protein levels. Transfection conditions were optimized with Lipofectamine plus or Lipofectamine 2000 (Life Technologies, Canada) on T24 bladder carcinoma cells or H460 non-small cell lung carcinoma cells, or lipofectin on SF-295 glioblastoma cells, using a fluorescein-tagged sense oligonucleotide (5′-mGmAGAAGATGACTGGTAAmCmA-3′; SEQ ID NO: 261) from XIAP spanning the start codon as a control. The results were visualized and gauged by epi-fluorescence microscopy. In the case of T24 cells, transfections were further optimized based on the ability of a published oligonucleotide to downregulate survivin expression (Li et al., Nat. Cell Biol. 1:461-466, 1999) (5′-U/TGTGCTATTCTGTGAAU/TU/T-3′ SEQ ID NO: 262). We optimized the transfection conditions based on the TaqMan results of survivin RNA knock-down detected with PCR primers and fluorescent probe, described in detail below. […] We then applied these conditions to screen for XIAP protein knock-down using the oligo library against T24 cells.
RNA was extracted from cells lysed in RLT buffer (QIAGEN, Valencia, Calif.), and purified using QIAGEN RNeasy columns/kits. Real-time quantitative PCR was performed on a Perkin-Elmer ABI 7700 Prism PCR machine. RNA was reverse transcribed and amplified according to the TaqMan Universal PCR Master Mix protocol of PE Biosystems, using primers and probes designed to specifically recognize XIAP, HIAP1, survivin, or GAPDH. For human survivin, the forward primer was 5′-[…]-3′ (SEQ ID NO: 263), the reverse primer was 5′-GAAAGGAAAGCGCAACCG-3′ (SEQ ID NO: 264), and the probe was 5′-(FAM)[…](TAMRA)-3′ (SEQ ID NO: 265). For human HIAP1, the forward primer was 5′-[…]-3′ (SEQ ID NO: 266), the reverse primer was 5′-[…]-3′ (SEQ ID NO: 267), and the probe was 5′-(FAM)[…](TAMRA)-3′ (SEQ ID NO: 268). For human XIAP, the forward primer was 5′-[…]-3′ (SEQ ID NO: 269), the reverse primer was 5′-[…]-3′ (SEQ ID NO: 270), and the probe was 5′-(FAM)[…](TAMRA)-3′ (SEQ ID NO: 271). For human GAPDH, the forward primer was 5′-GAAGGTGAAGGTCGGAGTC-3′ (SEQ ID NO: 272), the reverse primer was 5′-GAAGATGGTGATGGGATTC-3′ (SEQ ID NO: 273), and the probe was 5′-(JOE)[…](TAMRA)-3′ (SEQ ID NO: 274). FAM is 6-carboxyfluoroscein, JOE is 6-carboxy-4,5-dichloro-2,7-dimethoxyfluoroscein, and TAMRA is 6-carboxy-N,N,N′,N′-tetramethylrhodamine. FAM and JOE are 5′ reporter dyes, while TAMRA is a 3′ quencher dye.
Relative quantification of gene expression was performed as described in the PE Biosystems manual using GAPDH as an internal standard. The comparative Ct (cycle threshold) method was used for relative quantitation of IAP mRNA levels compared to GAPDH mRNA levels. Briefly, real-time fluorescence measurements were taken at each PCR cycle and the threshold cycle (Ct) value for each sample was calculated by determining the point at which fluorescence exceeded a threshold limit of 30 times the baseline standard deviation. The average baseline value and the baseline SD are calculated starting from the third cycle baseline value and stopping at the baseline value three cycles before the signal starts to exponentially rise. The PCR primers and/or probes for the specific IAPs were designed to span at least one exon-intron boundary separated by 1 kb or more of genomic DNA, to reduce the possibility of amplifying and detecting genomic DNA contamination. The specificity of the signal, and possible contamination from DNA, were verified by treating some RNA samples with either DNase or RNase, prior to performing the reverse transcription and PCR reaction steps.
The XIAP synthetic library of 96 antisense oligonucleotides was first screened for decreases in XIAP protein levels. […]

The next series deals with XIAP protein. In words: XIAP protein knock-down in T24 cells (XIAP ELISA, relative to total protein). The note with it: for XIAP protein levels relative to total protein, compared to mock transfection (in words): first screen of the library.
From the text: as §1
A standard colorimetric XIAP ELISA assay was performed using an affinity-purified rabbit polyclonal antibody to XIAP as a capture antibody, and was detected with a XIAP monoclonal antibody (MBL, Japan) and a biotinylated anti-mouse Ig antibody and horseradish peroxidase-conjugated streptavidin and TMB substrate. Alternatively, a polyclonal XIAP or HIAP1 antibody may be used to measure XIAP or HIAP1 protein levels, respectively.
The XIAP synthetic library of 96 antisense oligonucleotides was first screened for decreases in XIAP protein levels. Specifically, T24 cells (1.5×10^4 cells/well) were seeded in wells of a 96-well plate on day 1, and were cultured in antibiotic-free McCoy's medium for 24 hours. On day 2, the cells were transfected with XIAP antisense oligonucleotides as described above (oligonucleotides are labeled according to their plated position, i.e., A1 to H12, and include two repeats, A13 and B13 that contain lyophilized DNA pellets that stuck to the sealing membrane). Briefly, the nucleobase oligomers were diluted in 10 μl/well of serum-free, antibiotic-free McCoy's medium and then PLUS reagent was added. Lipofectamine was diluted in 10 μl/well of serum-free, antibiotic-free McCoy's medium, and both mixes were incubated for 15 minutes at room temperature. The mixes were then combined and incubated for 15 minutes at room temperature.
In the meantime, the complete medium was removed from the cells and 50 μl/well of serum-free, antibiotic-free medium was added to the cells. The transfection mixes were added to the well, and the cells were incubated for three hours. Then 30 μl/well of serum-free, antibiotic-free medium and 100 μl/well of antibiotic-free complete medium, containing 20% fetal bovine serum were added to each well.
At day 3, XIAP RNA levels were measured using quantitative real-time PCR techniques, as described above. At day 4, XIAP protein levels were measured by ELISA (FIGS. 1A, 1C, 1E, 1G, 1I, and 1K), and total cellular protein was measured biochemically (FIGS. 1B, 1D, 1F, 1H, 1J, and 1L; used to normalize the XIAP protein levels). The results were compared to a mock transfection sample (treated with the transfection agent but no oligonucleotide DNA was added, and then processed as for the other samples). Time course experiments determined that the optimal time for protein knock-down to be around 12 to 24 hours. […]

Series [1] has as its system XIAP mRNA. In words: XIAP mRNA knock-down in H460 cells (real-time RT-PCR / TaqMan). The essentials: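 NCI-H460 cells transfected with phosphorothioate antisense oligonucleotides via Lipofectamine 2000; RNA isolated after 6 h treatment. XIAP mRNA quantified by one-step TaqMan real-time RT-PCR, comparative Ct (threshold 30× baseline SD), normalized to GAPDH and expressed relative to untreated control cells.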

The test system of series [2] is T24 bladder carcinoma cells. The series is described as follows: T24 cell viability and chemosensitization (WST-1 tetrazolium dye assay). The note with it: adriamycin 0.5 μg/ml for 20 hours after transfection, vs oligonucleotide alone. The method, then:
T24 cells were transfected with XIAP antisense oligonucleotides, scrambled oligonucleotides, no oligonucleotides (mock transfected), or were left untreated. The cells were tested for viability 20 hours after transfection (with the exception of the untreated control) using the WST-1 tetrazolium dye assay in which WST-1 tetrazolium dye is reduced to a colored formazan product in metabolically active cells (FIG. 5A).
To examine the effects of the nucleobase oligomers on the chemosensitization of the T24 cells to cisplatin or adriamycin, oligonucleotides were tested for their ability to further kill T24 cells in the presence of a fixed dose of adriamycin (0.5 μg/ml). Cells were first transfected with a oligonucleotide, then adriamycin was added for another 20 hours. Viability was measured by WST-1 at the end of the 20-hour drug treatment (FIG. 5B). Results are shown in FIG. 5C as percentage viability compared to nucleobase oligomer treatment alone.
A general note: Formazan colour is commonly taken as a measure of viable cells.

In series [3] the test system is T24 bladder carcinoma cells. In words: Total cellular protein in transfected T24 cells. The note with it: first screen. As for the experimental part: At day 3, XIAP RNA levels were measured using quantitative real-time PCR techniques, as described above. At day 4, XIAP protein levels were measured by ELISA (FIGS. 1A, 1C, 1E, 1G, 1I, and 1K), and total cellular protein was measured biochemically (FIGS. 1B, 1D, 1F, 1H, 1J, and 1L; used to normalize the XIAP protein levels). The results were compared to a mock transfection sample (treated with the transfection agent but no oligonucleotide DNA was added, and then processed as for the other samples). Time course experiments determined that the optimal time for protein knock-down to be around 12 to 24 hours.
These nucleobase oligomers were also examined for their ability to decrease XIAP mRNA levels at 12 hours, normalized against GAPDH levels, and compared to mock transfection. Total protein concentrations at 12 hours were also determined (FIG. 2C).

Series [4] has as its system XIAP mRNA. The series is described as follows: XIAP mRNA knock-down in H460 cells (real-time RT-PCR / TaqMan). The note with it: 2 × 2 MBO; NCI-H460 cells, 9 hours post-transfection; relative level (mock control 1.01). (In general: In qPCR the cycle at which signal appears reflects the starting amount.)

d = 2'-deoxy (DNA); m = 2'-O-methyl

On to “GATTCACTTCGAATATTAA (sugars from the 5' end m2 d15 m2, linkages s1 o16 s1 (s phosphorothioate, o phosphodiester), methylation of C not given here) [Code D7]”, for which the “XIAP down-regulation T24 RNA” value with XIAP RNA came to 56%. Moreover, in the series on XIAP protein, the “XIAP down-regulation T24 protein” value amounted to 88% and the “XIAP protein levels relative to total protein, compared to mock transfection (in words)” value is recorded as “some decrease”. In addition, the “XIAP down-regulation H460 RNA” value in the series on XIAP mRNA [1] was found to be 46%. Besides, the “further drop in survival with adriamycin” value in series [2] worked out at 40%.
Turning to “ATCTTCTCTTGAAAATAGG (sugars from the 5' end m2 d15 m2, linkages s1 o16 s1 (s phosphorothioate, o phosphodiester), T or U not given here) [Code F3]”, the “XIAP down-regulation T24 RNA” value with XIAP RNA came out at 44%. Also, in the series with XIAP protein, the “XIAP down-regulation T24 protein” value came out at 53% and the “XIAP protein levels relative to total protein, compared to mock transfection (in words)” value is “some decrease”. Moreover, the “further drop in survival with adriamycin” value in series [2] is 40%.
Consider “GACACTCCTCAAGTGAATG (antisense; sugars from the 5' end m2 d15 m2, backbone, methylation of C and T or U not given here; further chemistry not fully specified) [Code C9]”, for which the “XIAP protein levels relative to total protein, compared to mock transfection (in words)” value in the series on XIAP protein is listed as “no relative drop”. Besides, the “total protein (toxic or cytostatic effect)” value in series [3] is given as “clear drop”.
For the sequence “AGTTAAATGAATATTGTTT (antisense; sugars from the 5' end m2 d15 m2, backbone and T or U not given here; further chemistry not fully specified) [Code B9]”, in the series on XIAP protein, the “XIAP protein levels relative to total protein, compared to mock transfection (in words)” value is “no relative drop”. Besides, the “total protein (toxic or cytostatic effect)” value in series [3] is “clear drop”. Further, the “XIAP down-regulation H460 RNA” value in the series with XIAP mRNA [1] was 38%. Also, in the series on XIAP mRNA [4], the “XIAP RNA” value is 0.74.
